Results published in US20140235649A1, “USE OF PHOSPHATASE INHIBITORS OR HISTONE DEACETYLASE INHIBITORS TO TREAT DISEASES CHARACTERIZED BY LOSS OF PROTEIN FUNCTION” (LIXTE BIOTECHNOLOGY, INC., priority 2011, published 2014).
“Also recorded” adds a separate entry of the source.

Tests used:
[1] = tested on: beta-glucocerebrosidase (GBA); assay: GBA levels in human cells from Gaucher's disease type 1 / type 3 patients (Examples 2-4)
[2] = tested on: ΔSDHB-L65P; assay: ΔSDHB-L65P protein half-life through CHX treatment, Western blot, HeLa cells; assay type: cell-based, human
Protocol: Western blot analysis was performed as previously described with minor modifications (Zhuang et al, 2011). Microdissected tumor tissue and cell pellets were extracted for protein using RIPA lysis buffer supplemented with Halt proteinase inhibitor cocktail (Thermo Scientific, Rockford, Ill.). Protein was vortexed at 4° C. for 20 min and centrifuged in 12,000 g for 10 min at 4° C. Supernatant was collected and protein quantity was identified through a Bio-Rad (Hercules, Calif.) Protein Assay kit. Equal amount of proteins were separated on NuPAGE 4-12% Bis-Tris gel (Invitrogen, Carlsbad, Calif.) and transferred to PVDF membranes (Invitrogen). Membranes were blocked in 5% skim dried milk in PBST and blotted with primary antibody. Protein expression was identified through chemiluminescence kit (Thermo Scientific). The following antibodies were used: SDHA (1:1,000, Cell Signaling Technology, Beverly, Mass.), SDHB (1:1,000, Sigma-Aldrich, St. Louis Mo.), Flag (1:2,000, Origene, Rockville, Md.), Ubiquitin (1:1,000, Abcam, Cambridge, Mass.), HA (1:2,000, Origene), Hsp90 (1:1,000, Cell Signaling Technology) and β-Actin (1:1,000, Santa Cruz Biotechnology, Inc., Santa Cruz, Calif.).
HeLa cells were maintained in DMEM containing 10% FBS (Invitrogen). Cells were transfected with SDHB vectors by FuGENE 6 transfection reagent (Roche, Indianapolis, Ind.). Medium was changed 4 hours after transfection and cells were maintained 48 hours before cycloheximide (20 μg/mL, Sigma-Aldrich) treatment.
Ubiquitin-HA vector was described previously (Kamitani et al. (1997)). Human wild type SDHB gene was cloned into pCMV6-Entry vector (Origene). Hot spot missense mutations in SDHB related PHEOs/PGLs based on previous findings (Van Nederveen et al. (2006); Henderson et al. (2009); Pawlu et al. (2005)). Mutagenesis was performed based on wild type SDHB vector using a Quikchange Lightning Site-Directed Mutagenesis Kit (Agilent, Santa Clara, Calif.). For each mutant, the sequence of SDHB gene was verified through sequencing the entire coding region of the gene. Vectors were purified through PureLink HiPure Plasmid Maxiprep kit (Invitrogen) for transfection and cell free protein expression.

[3] = tested on: mutant SDHB protein; assay: Immunoprecipitation of mutant SDHB: ubiquitination and Hsp90 binding; assay type: cell-based, human; conditions: immunoprecipitated ΔSDHB-R49Q (FIG. 14E)
Protocol: Protein was extracted from cell cultures using IP lysis buffer with Halt proteinase inhibitor cocktail (Thermo Scientific). Four hundred microgram of total protein was precipitated with Flag antibody (1:200, Origene) using a DynaBeads Protein G immunoprecipitation kit (Invitrogen). Proteins were precipitated overnight at 4° C. and eluted for Western blot analysis.

[4] = tested on: missense glucocerebrosidase; conditions: previously found (REF); cited from earlier work
[5] = tested on: VHL protein; assay: VHL protein levels in tumor cells from VHL derived tumors (Examples 6-7); conditions: Example 6, versus untreated cells
[6] = tested on: SDHB protein; assay: SDHB protein levels in tumor cells from SDHB derived tumors (Examples 9-10); conditions: Example 9, versus untreated cells
[7] = tested on: ΔGBA-N370S; assay: Metabolic [35S] pulse chase assay, HeLa cells with ΔGBA-N370S vector; assay type: cell-based, human; conditions: N370S mutant
Protocol: (§1) Human GBA gene was cloned into pCMV6-Entry vector (Origene; Rockville, Md.). Mutagenesis was performed using a QuikChange Lightning Site-directed mutagenesis kit (Agilent; Santa Clara, Calif.). Mutagenesis reaction was conducted using primers with N370S and L444P mutation sites. For each mutant, the sequence of GBA genes was verified by sequencing the entire coding regions.
(§2) Metabolic [^35S] pulse chase assay was performed as previously described with minor modifications (16). A total of 5×10^5 HeLa cells were transfected with GBA vectors through FuGene 6 transfection reagent (Roche; Indianapolis, Ind.). Cells were used for pulse chase assay 24 hr after transfection. Cells were starved in methionine-depleted medium for 15 min followed by 15 min labeling in methionine-free Delbecco's modified Eagle medium (DMEM) supplemented with 10% FBS and 0.2 mCi/mL [^35S]-methionine ([…] specific activity, Perkin Elmer). The cells were then chased in DMEM with 10% FBS and 3 mg/mL methionine. Cells were extracted for protein within various durations after radioactive labeling. Cells were lysed in RIPA lysis buffer containing with Halt proteinase inhibitor cocktail (Thermo; Waltham, Mass.). GBA proteins were purified through immunoprecipitation using 200 ug total lysate with Flag antibody (Origene; Rockville, Md.). Precipitated proteins were resolved on NuPAGE Novex 4-12% Bis-Tris Gel (Invitrogen; Carlesbad, Calif.) and measured by liquid scintillation counting. The gel was fixed and incubated in EN3HANCE (Perkin Elmer; Waltham, Mass.) for 45 min and dried for X-ray film exposure.

[8] = tested on: ΔGBA-L444P; assay: Metabolic [35S] pulse chase assay, HeLa cells with ΔGBA-L444P vector; assay type: cell-based, human; conditions: L444P mutant
Protocol: as §1, §2

CN1CCN(C(=O)C2C(C(=O)O)[C@H]3CC[C@@H]2O3)CC1 (stereo partly shown) [LB100]
GBA levels / amount of GBA ([1]; Gaucher's disease type 1 and type 3 cells, 24 hours (Example 3, FIG. 1-3)): increased; also recorded: increased in all treatments, and the increase was not dose-dependent; also recorded: significantly higher than in untreated cells
GBA levels ([1]; Gaucher's disease type 3 cells, 24 hours (Example 2)): significantly higher than in untreated cells

O=C(CCCCCNC(=O)c1ccccc1S)Nc1ccccc1 [LB-201]
degradation / loss of mutant SDHB protein ([2]; L65P mutant): slowed the degradation of mutant protein; also recorded: decreased the loss of mutant SDHB
Hsp90 binding to mutant SDHB [3]: also decreased
SDHB mutant protein ubiquitination [3]: decreased SDHB mutant protein ubiquitination
co-translational degradation of missense glucocerebrosidase [4]: protect missense glucocerebrosidase from co-translational degradation
VHL levels [5]: significantly higher than in untreated cells
degradation of VHL [5]: decreased degradation of VHL
SDHB levels [6]: significantly higher than in untreated cells
degradation of SDHB [6]: decreased degradation of SDHB

CC1=C(O)C(=O)C=C2C1=CC=C1[C@@]2(C)CC[C@@]2(C)[C@@H]3C[C@](C)(C(=O)O)CC[C@]3(C)CC[C@]12C [celastrol]
increase in radioactively labeled protein quantity [7]: 33%
increase in [35S]-GBA residue [8]: 104%
SDHB protein remaining intact ([2]; L65P, after a 2 hr CHX treatment): more than 50%
